Values of other authors, collected in US20250345298A1, “APOE4 CORRECTORS AND METHODS OF USE” (Alzheon, Inc., priority 2022, published 2025).

SMILES	efficacy in Alzheimer's disease trials (human clinical trials for AD)	safety in human subjects
NCCCS(=O)(=O)O [Tramiprosate, 3-amino-1-propanesulfonic acid]	suggested efficacy in at least some patients	safe
CC(C)[C@H](N)C(=O)NCCCS(=O)(=O)O [ALZ-801, valyl-3-amino-1-propanesulfonic acid]		safe
